Earlier results in US9102697B2, “Trioxacarcins and uses thereof” (President and Fellows of Harvard College, priority 2010, dated 2015).

Tests used:
murine models = conditions: cited from earlier work
gram-positive = conditions: cited from earlier work
MCF-7 = conditions: mammary cancer cell line MCF-7; cited from earlier work
[1] = tested on: self-complementary DNA 12-mer d(AATTACGTAATT) (SEQ ID NO: 1); conditions: epoxide opening by N7 of the central guanine residue; cited from earlier work
SF-268 = conditions: CNS cancer cell line SF-268; cited from earlier work
LXFL 529L = conditions: lung cancer cell line LXFL 529L; cited from earlier work
H-460 = conditions: lung cancer cell line H-460; cited from earlier work

Row | Compound | anti-tumor activity (murine models) | antibiotic activity (gram-positive) | IC70 (MCF-7) | reaction with the oligonucleotide [1] | IC70 (SF-268) | IC70 (LXFL 529L) | IC70 (H-460)
1 | Trioxacarcin A | anti-tumor activity | gram-positive antibiotic activity | subnanmolar | form a covalent complex | subnanmolar | subnanmolar | subnanmolar
2 | COc1c2c(c(O)c3c4c(c(C)cc13)C1OC3(C(OC)OC)OC1C(OC1CC(O)C(O)(C(C)O)C(C)O1)(O4)C31CO1)C(=O)C(O)CC2OC1COC(C)(OC(C)=O)C(C)(O)C1 (centres unmarked) [Trioxacarcin C] | anti-tumor activity | gram-positive antibiotic activity |  |  |  |  | 
3 | COc1c2c(c(O)c3c4c(c(C)cc13)C1OC3(C(OC)OC)OC1C(O[C@H]1C[C@@H](O)[C@@](O)(C(C)=O)[C@H](C)O1)(O4)C3(O)CO)C(=O)C(O)CC2O[C@H]1C[C@@](C)(O)[C@H](OC(C)=O)[C@H](C)O1 (some centres unmarked) [Trioxacarcin B] | anti-tumor activity | gram-positive antibiotic activity |  |  |  |  | 
